Tests used:
[1] = test system: KBA 3-1 (DNA, aptamer) CGGAAGCGCGCCACCCCATCGGCGGGCGCGAAGCTTGCG; assay: ELONA (biotin-aptamer, streptavidin-HRP); conditions: for binding: immobilised compound, 1 μM aptamer
[2] = test system: FAM-labeled KBA 3-1 (DNA, aptamer) CGGAAGCGCGCCACCCCATCGGCGGGCGCGAAGCTTGCG; assay: RGO fluorescence quenching/recovery; conditions: 1X PBS pH 8.5, room temperature, 100 nM aptamer, 0.1 mg/mL RGO
[3] = test system: KBA 2 (DNA, aptamer) ATGCGGATCCCGCGCGACCAACGGAAGCGCGCCACCCCATCGGCGGCGCGAAGCTTGCGC; assay: ELONA (biotin-aptamer, streptavidin-HRP); conditions: for binding: immobilised compound, 1 μM aptamer
[4] = test system: KBA 1-2 (DNA, aptamer) CGCGCCGACGTCAGAGAGGCGCG; assay: ELONA (biotin-aptamer, streptavidin-HRP); conditions: not given; 1X PBS/PBST (concentrations not given); immobilised compound (amide bond on NOS plate); apparent
[5] = test system: KBA 1-1 (DNA, aptamer) ATGCGGATCCCGCGCCGACGTCAGAGAGGCGCGCTGGTTTGCAC; assay: ELONA (biotin-aptamer, streptavidin-HRP); conditions: not given; 1X PBS/PBST (concentrations not given); immobilised compound (amide bond on NOS plate); apparent
[6] = test system: KBA 3-2 (DNA, aptamer) CGCCACCCCATCGGCGGGCG; assay: ELONA (biotin-aptamer, streptavidin-HRP); conditions: not given; 1X PBS/PBST (concentrations not given); immobilised compound (amide bond on NOS plate); apparent
[7] = test system: KBA 2-2 (DNA, aptamer) CGCCACCCCATCGGCGGCG; assay: ELONA (biotin-aptamer, streptavidin-HRP); conditions: not given; 1X PBS/PBST (concentrations not given); immobilised compound (amide bond on NOS plate); apparent
[8] = test system: KBA 3 (DNA, aptamer) ATGCGGATCCCGCGCACCAACGGAAGCGCGCCACCCCATCGGCGGGCGCGAAGCTTGCGC; assay: ELONA (biotin-aptamer, streptavidin-HRP); conditions: not given; 1X PBS/PBST (concentrations not given); immobilised compound (amide bond on NOS plate); apparent
[9] = test system: KBA 2-1 (DNA, aptamer) CGGAAGCGCGCCACCCCATCGGCGGCGCGAAGCTTGCG; assay: ELONA (biotin-aptamer, streptavidin-HRP); conditions: not given; 1X PBS/PBST (concentrations not given); immobilised compound (amide bond on NOS plate); apparent
[10] = test system: KBA 1 (DNA, aptamer) ATGCGGATCCCGCGCCGACGTCAGAGAGGCGCGCTGGTTTGCACCGCGCGAAGCTTGCGC; assay: ELONA (biotin-aptamer, streptavidin-HRP); conditions: not given; 1X PBS/PBST (concentrations not given); immobilised compound (amide bond on NOS plate); apparent
[11] = not given, 1X PBS/PBST (concentrations not given), immobilised compound (amide bond on NOS plate), apparent

Compound | binding [1] | binding [3] | binding ([2]; 1 μM antibiotic) | further results
CC1(C)S[C@@H]2[C@H](NC(=O)[C@H](N)c3ccccc3)C(=O)N2[C@H]1C(=O)O | weak | weak | – | binding ([2]; 1 μM ampicillin): no
CN(C)[C@@H]1C(=O)C(C(N)=O)=C(O)[C@@]2(O)C(=O)C3=C(O)c4c(O)cccc4[C@@](C)(O)[C@H]3C[C@@H]12 | weak | weak | weak | –
NC[C@H]1O[C@H](O[C@H]2[C@H](O)[C@@H](O[C@H]3O[C@H](CO)[C@@H](O)[C@H](N)[C@H]3O)[C@H](N)C[C@@H]2N)[C@H](O)[C@@H](O)[C@@H]1O | – | – | – | Kd^app [4]: 669 ± 10.7 nM; Kd^app [5]: 268 ± 26.7 nM; Kd^app [6]: 239 ± 52.5 nM; Kd^app [7]: 564 ± 92.5 nM; Kd^app [1, 11]: 92.3 ± 29.1 nM; Kd^app [8]: 341 ± 12.8 nM; binding ([2]; 1 pM to 1 μM kanamycin): yes; Kd^app [3, 11]: 34.7 ± 35.6 nM; Kd^app [9]: 182 ± 57.2 nM; Kd^app [10]: 268 ± 20.8 nM

Second part, led by results:

binding [1] | binding [3] | binding ([2]; 1 μM antibiotic) | Compound | further results
weak | weak | weak | CN[C@@H]1[C@H](O[C@H]2[C@H](O[C@H]3[C@H](O)[C@@H](O)[C@H](N=C(N)N)[C@@H](O)[C@@H]3N=C(N)N)O[C@@H](C)[C@]2(O)C=O)O[C@@H](CO)[C@H](O)[C@H]1O | –
weak | weak | weak | CN[C@@H]1[C@H](O[C@H]2[C@H](O[C@H]3[C@H](O)[C@@H](O)[C@H](N=C(N)N)[C@@H](O)[C@@H]3N=C(N)N)O[C@@H](C)[C@]2(O)CO)O[C@@H](CO)[C@H](O)[C@H]1O | –
